Data set [1] concerns human spermatozoa. In words: Sperm motility by counting. The data set is classed as cell-based. The method, then:
Ten semen samples were randomly obtained form ten donors at the Andrology laboratory of the Department of Obstetrics and Gynecology at NYU Medical Center. All specimens were normal semen samples according to WHO guidelines. Each sample consisted of greater than or equal to 20 million motile sperm per milliliter. Sperm count and motility were determined by placing the sperm on a hackler chamber and assessing the samples under a 40× power microscopic field.
Each semen sample was washed two consecutive times in Ham's F-10 media. The washed sperm was spun to a pellet and then re-suspended in media to a concentration of 40 million spermatocytes per milliliter with at least 50% motility. Five microliters of sperm were then suspended in 100 microliters each of PBS, serial 10-fold dilutions of MAP30, or GAP31 or N-9 from 100 to 0.1 microg/ml. N-9 was used as a positive control. Motility and forward progression were assessed at each log concentration of the three compounds. The exposure time ranged form five minute to two hours.

The next data set has as its system HIV-1(IIIB). In words: Anti-HIV assay: p24 expression in HIV-infected MT-4 T lymphocytes. The data set is classed as cell-based. The settings on record: for EC50 / EC50 anti-HIV, p24 / EC100 anti-HIV, p24 (complete inhibition of HIV-1) / EC100 anti-HIV, p24 (molar): HIV-1 infected MT4 lymphocytes; for concentration of complete inhibition of p24 expression (FIG. 9): p24 ELISA of HIV-infected MT4 culture supernatant. The method, then:
Anti-HIV activity was assayed by inhibition on viral core protein, p24 expression in HIV-infected MT-4 T lymphocytes by RIA as described previously (World Health Organization (1992); Bourinbaiar et al (1995)). Briefly, the cells were plated in duplicated in 96-well microtiter plates at 1×10^5 cells/ml in the presence of serial 10-fold dilution of MAP30, or GAP31 or NP-9 at concentrations from […]. The cells were then infected with HIV-1(IIIB) at 100 infectious units per cell. The culture supernatants were collected on day 3 and were used for p24 assay using ELISA kit from Coulter (Hialeah, Fla.). Duplicates of original viral inoculum in the same volume of the medium without the target cells and incubated for 3 days were used as blanks. The blank values were subtracted from wells in which virus was propagated in host MT4 cells with or without drugs.

The next data set has as its system HSV-2. In words: Anti-HSV assay by ELISA in WI-38 cells. In kind it is cell-based. The method, then:
Anti-HSV activity was assayed with HSV-2 by ELISA (Meridian Diagnostics, Inc., Cincinnati, Ohio) as reported previously (Bourinbaiar et al (1996)). Human embryonic lung fibroblast cell line WI-38, (CCL-75, from ATCC, Rockville, Md.) was used as target cells. HSV-2 (VR-734, strain G) derived from a human with the genital infection was obtained from ATCC, Rockville, Md.

Data set [2] has as its system human spermatozoa. Description: Sperm vitality by eosin Y/nigrosine staining. In kind it is cell-based. The note with it: vital stain. The method, then:
The vitality staining was carried out by adding two drops of eosin Y to one drop of sperm sample and mixing for ten seconds. Two drops of nigrosine were then added to this mixture, and the solutions as mixed for 30 seconds. Slides were made from one drop of each solution mixed with MAP30, or GAP31, or N-9.

Data set [3] has as its system endoproteinase Lys-C and Glu-C (V8). Description: Resistance to limited proteolysis with Lys-C and V8 (SDS-PAGE). The note with it: Lys-C or V8, up to 24 hr. The method, then:
MAP30 and GAP31 were subjected to proteolysis with sequencing grade endoproteinase Lys-C and Glu-C (Promega, Madison, Wis.). Lys-C cleaves at the carboxylic side of lysine (Elliott et al., 1986). Glu-C, also known as V8 protease, cleaves specifically at the carboxylic side of glutamic acid in the presence of ammonium ion (Drapeau et al., 1972). In the absence of ammonium ion, Glu-C acts at both aspartic and glutamic acids. The reaction buffers for Lys-C and V8 were 25 mM Tris-HCl, pH 7.8, 1 mM EDTA and 50 mM ammonium bicarbonate, pH 7.8 respectively.
FIGS. 1A-1D show time course SDS-PAGE patterns of Lys-C and V8 digestions of MAP30 and GAP31. Three major fragments were produced in each case. These fragments are designated MLF25, MLF21, MLF0.8 (MAP30 Lys-C Fragments of 25, 21, and 0.8 kDa, FIG. 1A), MVF25, MVF21, MVF0.8 (MAP30 V8 Fragments of 25, 21, and 0.8 kDa, FIG. 1B), GLF26, GLF22, GLF0.6 (GAP31 Lys-C Fragments of 26, 22 and 0.6 kDa, FIG. 1C), and GVF26, GVF22, GVF0.6 (GAP31 V8 Fragments of 26, 22 and 0.6 kDa, FIG. 1D). The smaller peptides are C-terminal fragments produced during proteolysis and they are sensitive to further digestion to short peptides.

In another data set the test system is supercoiled HIV-LTR DNA. Description: Topological inactivation: conversion of supercoiled HIV-LTR DNA to relaxed and linear forms. The note with it: supercoiled HIV-LTR into relaxed and linear forms. The data set is classed as biochemical. The method, then: (§1) In FIG. 4A, the inhibition on HIV-integrase was assayed by the 3′-processing reaction of HIV-1 integrase (Lee-Huang et al., 1995). This activity was assayed by specific cleavage of the dinucleotide GT from 5′-[^32P] labeled 21-mer of the HIV-U3-LTR substrate. The effect was measured by the inhibition of the formation of labeled 19-mer product by autoradiography of urea gels. […] In FIG. 4B, topological inactivation was measured by the conversion of supercoiled HIV-LTR DNA (S) into relaxed (R) and linear (L) forms by agarose gel electrophoresis (Huang et al., 1992). Samples that cause topological inactivation show L and R and no S forms.
(§2) Anti-HIV activity was determined by inhibition on the expression of viral core protein p24 expression by RIA (Lee-Huang et al., 1990; Lee-Huang et al., 1991 and Lee-Huang et al., 1999). Anti-tumor activity was determined by the effects of the peptide fragments on the growth of human breast tumor cell line MDA-MB-231 by [^3H] thymidine incorporated (Lee-Huang et al., 1999 and Rybak et al., 1994). HIV-integrase inhibition was assayed by the three specific reactions catalyzed by the integrase, namely, 3′ processing (specific cleavage of the dinucleotide GT from the viral substrate HIV-LTR U3), strand transfer (integration) and disintegration (Lee-Huang et al., 1995). Topological inactivation was measured by the conversion of supercoiled HIV-LTR DNA to relaxed and linear forms (Huang et al., 1992). Ribosome inactivation was determined by the translation of globin message in a rabbit reticulocyte lysate system (Lee-Huang et al., 1990 and Lee-Huang et al., 1991).

The target of a further data set is T1, HIV-1 integrase (Human immunodeficiency virus type 1 group M subtype B, UniProt P04585).
T1 construct: assayed by the 3′-processing reaction of HIV-1 integrase
In words: HIV-integrase inhibition (3'-processing, strand transfer, disintegration). The settings on record: strand transfer and disintegration. The data set is classed as biochemical. The method, then:
as §1, §2

Data set [4] relates to human breast tumor cell line MDA-MB-231. Description: Anti-tumor activity: proliferation of MDA-MB-231 cells by [3H] thymidine incorporation. In kind it is cell-based. The note with it: MDA231 proliferation. The method, then:
(§3) In FIG. 3A, anti-HIV activity was assayed by HIV core protein p24 expression in H9 cells (Lee-Huang et al., 1990 and Lee-Huang et al., 1991). […] Anti-tumor activity was determined by in vitro proliferation of human breast tumor MAD-MB-231 cell by [^3H] thymidine incorporation (Lee-Huang et al., 1999) and the average control value was about 1.88×10^5 cpm/ml (FIG. 3B). In FIG. 3C, the cytotoxic effect was measured by the MTS colorimetric assay (Lee-Huang et al., 1999), and in FIG. 3D, the ribosome-inactivation activity was determined by in vitro translation of globin message in a rabbit reticulocyte lysate system (Lee-Huang et al., 1990 and Lee-Huang et al., 1991) and the average control value was about 5.8×10^4 cpm/ml. In each assay, triplicates were carried in two independent experiments, and the results are normalized to values obtained in control assays. Standard deviations are indicated by error bars.
as §2
(§4) To analyze the structural and activity relationship of the anti-HIV proteins, each of the homogeneous proteolytic fragments was assayed for anti-HIV and anti-tumor activities. […] Anti-HIV activity was measured by viral core protein p24 expression in HIV-1 infected H9 T lymphocytes by RIA (Lee-Huang et al., 1990 and Lee-Huang et al., 1991). Anti-tumor activity was measured by proliferation of human breast tumor MDA231 cells (Lee-Huang et al., 1999 and Rybak et al., 1994). […] No significant difference in the anti-HIV and anti-tumor activities was detected between these core fragments.

The subject of data set [5] is ribosome (rabbit reticulocyte lysate system). In words: Ribosome inactivation: translation of globin message in a rabbit reticulocyte lysate system. The data set is classed as biochemical. The settings on record: [3H]-labelled leucine incorporation. The method, then:
as §3, §2
The anti-HIV and anti-tumor fragments, MLF25, MLF21, MVF25, MVF21, GLF26, GLF22, GVF26, GVF22 are active in HIV-integrase inhibition as assayed by the 3′-processing (FIG. 4A), strand transfer and disintegration (data not shown) as well as in DNA topological inactivation as assayed by the conversion of supercoiled HIV-LTR into relaxed and linear forms (FIG. 4B). […] Moreover, the C-terminal regions of these proteins are required for N-glycosidase activity, but not for antiviral and anti-tumor activities.

The test system of another data set is HIV-1. In words: Anti-HIV activity: viral core protein p24 expression in HIV-1 infected H9 T lymphocytes by RIA. In kind it is cell-based. The method, then: as §3, §2, §4

“Also recorded” adds a separate entry of the source.

In the case of “Nonoxynol-9 [Fragment N-9, reference compound]”, in the data set on human spermatozoa [1], the “concentration of complete inhibition of sperm motility (FIG. 7)” value worked out at 100 micrograms/ml and the “inhibition of sperm motility at 100 μg/ml” value is “totally inhibited”. Moreover, in the data set with human spermatozoa [1] (10 μg/ml, relative to PBS as 100% motility, mean ± SEM), the “inhibition in motility at 10 μg/ml” value was determined as 43±5%. The same substance registered an EC50 spermicidal activity in the data set on human spermatozoa [1] (50% inhibition of sperm motility) of 20 µg/mL. The EC100 spermicidal activity in the data set on human spermatozoa [1] (100% inhibition of sperm motility) was 100 µg/mL. In addition, the “inhibition on sperm motility at the antiviral EC100 concentrations” value in the data set on human spermatozoa [1] (N-9 at 10 μg/ml and 50 μg/ml) is given as 50 to 80%. Moreover, in the data set on HIV-1(IIIB), the EC50 came to 162 nM; the “EC50 anti-HIV, p24” value amounted to 0.1 µg/mL; the “EC100 anti-HIV, p24 (complete inhibition of HIV-1)” value was 10 µg/mL; the “EC100 anti-HIV, p24 (molar)” value came out at 16.2 µM. Besides, the “concentration of complete inhibition of p24 expression (FIG. 9)” value in the data set on HIV-1(IIIB) is listed as 10 microgram/ml. For the same substance, in the data set on HSV-2, the “EC100 for HSV-2 (complete inhibition)” value stood at 50 µg/mL. Besides, the “sperm vitality after treatment” value with human spermatozoa [2] is recorded as “potent spermicidal effect; also recorded: all sperm wimples were dead”.
Consider “GAP31: Gelonium Anti-HIV Protein 31 kDa, native full-length, SEQ ID NO:2, from Gelonium multiflorum”, for which the “inhibition of sperm motility at 100 μg/ml” value with human spermatozoa [1] is reported as “only marginal effect”. Moreover, the “effect on sperm motility at the antiviral EC100 concentrations” value in the data set on human spermatozoa [1] (0.01 to 0.1 μg/ml) is recorded as “no significant effect on sperm motility”. Besides, the “spermicidal activity / motility inhibition over the entire concentration ranges tested” value in the data set on human spermatozoa [1] (0.1 to 100 μg/ml) is “little spermicidal activity; also recorded: little inhibition”. In addition, in the data set on HIV-1(IIIB), a half-maximal response (EC50) required 0.3 nM; the “EC50 anti-HIV, p24” value is 0.001 µg/mL; the “EC100 anti-HIV, p24 (complete inhibition of HIV-1)” value worked out at 0.1 µg/mL; the “EC100 anti-HIV, p24 (molar)” value was 0.0033 µM. In addition, the “concentration of complete inhibition of p24 expression (FIG. 9)” value in the data set with HIV-1(IIIB) is given as 0.1 microgram/ml. Also, in the data set with HIV-1(IIIB) (anti-HIV p24, MT4), the “fold more potent than N-9 in terms of molar concentration at EC50” value is on record as “about 540 fold” and the “fold more potent than N-9 in terms of weight per volume” value is on record as “about 100 fold”. For the same substance, in [3], the resistance to proteolysis result is reported as “no proteolysis was detected up to 24 hr of treatment even at as much as 5% (W/W) of enzyme”. Moreover, the “EC100 for HSV-2 (complete inhibition)” value in the data set on HSV-2 is 0.1 µg/mL. Further, the “sperm vitality after treatment” value in the data set with human spermatozoa [2] is “remained vital and impermeable to the pink dye; also recorded: not toxic to the spermatozoa”.
“GLF26: GAP31 Lys-C fragment, 25-26 kDa, residues 11-226 of SEQ ID NO:2”: the “DNA topological inactivation” value in the data set on supercoiled HIV-LTR DNA is recorded as “active”. Also, the resistance to proteolysis result in [3] is reported as “remained intact even after 24 hr of proteolysis”. Also, the “HIV-integrase inhibition” value in the data set with HIV-1 integrase was “active”. Moreover, in data set [4], the “anti-tumor activity” value is “Most of the anti-HIV and anti-tumor activity”. The “ribosome inactivation” value in data set [5] was “none of these fragments are active”. For the same substance, the “anti-HIV activity” value with HIV-1 was “Most of the anti-HIV and anti-tumor activity”.

The values are drawn from patent US6652861B1, “Anti-HIV and anti-tumor peptides and truncated polypeptides of MAP30” (priority 1999, dated 2003).
